Assay results from ChEMBL document CHEMBL1649172, “Novel imino sugar derivatives demonstrate potent antiviral activity against flaviviruses” (Antimicrob Agents Chemother, 2009).
Activity calls are given as the source filed them. The calls are words filed in the database; no cut-off is given here.

Legend:
[1] = test system: Bovine viral diarrhea virus 1; experiment: Antiviral activity against Bovine viral diarrhea virus 1; assay type: functional, organism-based; conditions: Bovine viral diarrhea virus isolates and strains
[2] = test system: Dengue virus; experiment: Antiviral activity against Dengue virus; assay type: functional, organism-based
[3] = test system: West Nile virus; experiment: Antiviral activity against West Nile virus infected in baby hamster kidney cells assessed as reduction in viral titer after 72 hrs by plaque reduction assay; assay type: functional, organism-based
[4] = Antiviral activity against 1 MOI Bovine viral diarrhea virus NADL infected in MDBK cells assessed as reduction in viral titer after 72 hrs by plaque forming assay; assay type: functional, cell-based, Bovine viral diarrhea virus 1-NADL; conditions: Bovine viral diarrhea virus isolates and strains
[5] = Selectivity index, ratio of CC50 for bovine MDBK cells to EC50 for 1 MOI Bovine viral diarrhea virus infected in bovine MDBK cells; assay type: toxicity, cell-based; conditions: cattle; read-out: Ratio CC50/EC50
[6] = test system: Dengue virus; experiment: Antiviral activity against Dengue virus C infected in african green monkey Vero cells assessed as reduction in viral titer after 72 hrs by plaque reduction assay; assay type: functional, organism-based
[7] = Cytotoxicity against MDBK cells by MTT assay; assay type: cell-based, Bos taurus; conditions: cattle
[8] = Cytotoxicity against african green monkey Vero cells by MTT assay; assay type: cell-based; conditions: chlorocebus sabaeus
[9] = Cytotoxicity against BHK cells by MTT assay; assay type: cell-based, Mesocricetus auratus; conditions: hamster
[10] = Antiviral activity against 1 MOI Bovine viral diarrhea virus NADL infected in bovine MDBK cells assessed as inhibition of intracellular viral RNA production at 80 uM after 24 hrs by RT-PCR; assay type: functional, Bovine viral diarrhea virus 1-NADL; conditions: Bovine viral diarrhea virus isolates and strains
[11] = Antiviral activity against 1 MOI Bovine viral diarrhea virus NADL infected in bovine MDBK cells assessed as inhibition of extracellular viral RNA production at 80 uM after 24 hrs by RT-PCR; assay type: functional, Bovine viral diarrhea virus 1-NADL; conditions: Bovine viral diarrhea virus isolates and strains
[12] = (§1) Antiviral activity against 1 MOI Bovine viral diarrhea virus NADL infected in bovine MDBK cells assessed as inhibition of viral RNA replication at 80 uM after 24 hrs by RT-PCR; assay type: functional, Bovine viral diarrhea virus 1-NADL; conditions: Bovine viral diarrhea virus isolates and strains
[13] = Antiviral activity against 1 MOI Bovine viral diarrhea virus NADL infected in bovine MDBK cells assessed as reduction in viral titer at 80 uM after 24 hrs by RT-PCR; assay type: functional, Bovine viral diarrhea virus 1-NADL; conditions: Bovine viral diarrhea virus isolates and strains
[14] = test system: MDBK; experiment: Antiviral activity against 1 MOI Bovine viral diarrhea virus NADL infected in bovine MDBK cells assessed as inhibition of viral RNA replication at 100 uM after 12 hrs by RT-PCR; assay type: functional, cell-based; conditions: Bovine viral diarrhea virus 1-NADL
[15] = Antiviral activity against 1 MOI Bovine viral diarrhea virus NADL infected in bovine MDBK cells assessed as inhibition of intracellular viral RNA production at 100 uM after 24 hrs by RT-PCR; assay type: functional, Bovine viral diarrhea virus 1-NADL; conditions: Bovine viral diarrhea virus isolates and strains
[16] = Antiviral activity against 1 MOI Bovine viral diarrhea virus NADL infected in bovine MDBK cells assessed as inhibition of viral RNA replication at 100 uM after 24 hrs by RT-PCR; assay type: functional, Bovine viral diarrhea virus 1-NADL; conditions: Bovine viral diarrhea virus isolates and strains
[17] = Antiviral activity against 1 MOI Bovine viral diarrhea virus NADL infected in bovine MDBK cells assessed as inhibition of extracellular viral RNA production at 100 uM after 24 hrs by RT-PCR; assay type: functional, Bovine viral diarrhea virus 1-NADL; conditions: Bovine viral diarrhea virus isolates and strains
[18] = test system: Bovine viral diarrhea virus 1-NADL; experiment: Inhibition of […] assessed as reduced E2 protein mobility after 24 hrs by Western blotting
[19] = Antiviral activity against 1 MOI Bovine viral diarrhea virus NADL infected in bovine MDBK cells assessed as reduction in viral titer at 100 uM after 24 hrs by RT-PCR; assay type: functional, Bovine viral diarrhea virus 1-NADL; conditions: Bovine viral diarrhea virus isolates and strains
[20] = test system: MDBK; experiment: Antiviral activity against 1 MOI Bovine viral diarrhea virus NADL infected in bovine MDBK cells assessed as inhibition of viral RNA replication at 80 uM after 6 hrs by RT-PCR; assay type: functional, cell-based; conditions: Bovine viral diarrhea virus 1-NADL
[21] = test system: MDBK; experiment: Antiviral activity against 1 MOI Bovine viral diarrhea virus NADL infected in bovine MDBK cells assessed as inhibition of viral RNA replication at 80 uM after 12 hrs by RT-PCR; assay type: functional, cell-based; conditions: Bovine viral diarrhea virus 1-NADL
[22] = test system: MDBK; experiment: Antiviral activity against 1 MOI Bovine viral diarrhea virus NADL infected in bovine MDBK cells assessed as inhibition of viral RNA replication at 100 uM after 6 hrs by RT-PCR; assay type: functional, cell-based; conditions: Bovine viral diarrhea virus 1-NADL
[23] = test system: MDBK; experiment: as §1; assay type: functional; conditions: Bovine viral diarrhea virus 1-NADL

Compound: CCCCN1C[C@H](O)[C@@H](O)[C@H](O)[C@H]1CO [MIGLUSTAT]
- EC50 [1]: 100 µM
- EC50 [2]: 100 µM

Compound: CCCCCCCCCN1C[C@H](O)[C@@H](O)[C@H](O)[C@H]1CO
- EC50 [3]: 4 µM
- EC50 [4]: 7.3 µM
- EC90 [4]: 71 µM
- selectivity ratio [5]: 33
- EC50 [6]: 1.1 µM
- EC90 [6]: 3.3 µM
- CC50 [7]: 245 µM
- CC50 [8]: > 40 µM
- CC50 [9]: 20 µM

Compound: OC[C@@H]1[C@@H](O)[C@H](O)[C@@H](O)CN1CCCCCCC1(O)CCCCC1
- EC50 [4]: 18 µM
- EC90 [4]: 82.5 µM
- selectivity ratio [5]: > 28
- CC50 [7]: > 500 µM

Compound: Cc1ccc(C)c(OCCCCCCN2C[C@H](O)[C@@H](O)[C@H](O)[C@H]2CO)c1
- EC50 [3]: 1.5 µM
- EC90 [3]: 20 µM
- EC50 [4]: 3 µM
- EC90 [4]: 24.9 µM
- selectivity ratio [5]: 162
- EC50 [6]: 0.1 µM
- EC90 [6]: 0.6 µM
- CC50 [7]: 485 µM
- CC50 [8]: 85 µM
- CC50 [9]: 75 µM

Compound: OC[C@@H]1[C@@H](O)[C@H](O)[C@@H](O)CN1CCCCCOCC1CC2CCC1C2 (stereo partly specified)
- EC50 [4]: 2.9 µM
- EC90 [4]: 22 µM
- selectivity ratio [5]: > 172
- CC50 [7]: > 500 µM

Compound: CCC(O)(CC)CCCCCN1C[C@H](O)[C@@H](O)[C@H](O)[C@H]1CO
- EC50 [4]: 22 µM
- EC90 [4]: > 100 µM
- selectivity ratio [5]: > 23
- CC50 [7]: > 500 µM

Compound: OC[C@@H]1[C@@H](O)[C@H](O)[C@@H](O)CN1CCCCCC1(O)CCCCC1
- EC50 [3]: 4.5 µM
- inhibition at 80 µM [10]: 40%
- EC50 [4]: 10.5 µM
- EC90 [4]: > 100 µM
- selectivity ratio [5]: > 48
- inhibition at 80 µM [11]: 73%
- EC50 [6]: 4 µM
- EC90 [6]: 8.7 µM
- inhibition at 80 µM [12]: 40%
- inhibition at 80 µM [13]: 89%
- inhibition [14]: inactive
- inhibition at 100 µM [15]: 40%
- inhibition at 100 µM [16]: 40%
- inhibition at 100 µM [17]: 73%
- CC50 [7]: > 500 µM
- CC50 [8]: > 40 µM
- CC50 [9]: > 100 µM
- inhibition [18]: Dose-dependent effect
- inhibition at 100 µM [19]: 89%
- inhibition [20]: inactive
- inhibition [21]: inactive
- inhibition [22]: inactive

Compound: CC1CCC(OCCCCCCN2C[C@H](O)[C@@H](O)[C@H](O)[C@H]2CO)CC1 (stereo partly specified)
- inhibition at 80 µM [10]: 40%
- EC50 [4]: 7.1 µM
- EC90 [4]: 53 µM
- selectivity ratio [5]: > 70
- inhibition at 80 µM [11]: 73%
- EC50 [6]: 6.75 µM
- EC90 [6]: 13 µM
- inhibition at 80 µM [12]: 40%
- inhibition [23]: Active
- inhibition at 80 µM [13]: 89%
- inhibition [14]: inactive
- inhibition at 100 µM [15]: 40%
- inhibition at 100 µM [16]: 40%
- inhibition at 100 µM [17]: 73%
- CC50 [7]: > 500 µM
- CC50 [8]: > 40 µM
- inhibition at 100 µM [19]: 89%
- inhibition [21]: inactive

Compound: C[C@@H]1CCCCC1OCCCCCCN1C[C@H](O)[C@@H](O)[C@H](O)[C@H]1CO (stereo partly specified)
- EC50 [3]: 3.5 µM
- EC90 [3]: 33 µM
- EC50 [4]: 3.3 µM
- EC90 [4]: 14.3 µM
- selectivity ratio [5]: > 151
- EC50 [6]: 0.075 µM
- EC90 [6]: 0.6 µM
- CC50 [7]: > 500 µM
- CC50 [8]: 65 µM
- CC50 [9]: 70 µM

Compound: CC(C)[C@@H]1CC[C@@H](C)CC1OCCCCCCN1C[C@H](O)[C@@H](O)[C@H](O)[C@H]1CO (stereo partly specified)
- EC50 [3]: 4.75 µM
- EC90 [3]: 19 µM
- EC50 [4]: 1.6 µM
- EC90 [4]: 14.8 µM
- selectivity ratio [5]: 146
- EC50 [6]: 0.1 µM
- EC90 [6]: 0.2 µM
- CC50 [7]: 235 µM
- CC50 [8]: 80 µM
- CC50 [9]: 70 µM

Compound: OC[C@@H]1[C@@H](O)[C@H](O)[C@@H](O)CN1CCCCCCOC1CC2CCC1C2 (stereo partly specified)
- EC50 [4]: 4.5 µM
- EC90 [4]: 47 µM
- selectivity ratio [5]: > 111
- CC50 [7]: > 500 µM

Compound: CCCC(O)(CCC)CCCCCN1C[C@H](O)[C@@H](O)[C@H](O)[C@H]1CO
- EC50 [4]: 9.5 µM
- EC90 [4]: > 100 µM
- selectivity ratio [5]: > 53
- CC50 [7]: > 500 µM
